From publication PMC2801547 (Journal of medicinal chemistry, 2009)

What was measured:
several tumor cell lines = details: cited from earlier work
[1] = cited from earlier work
[2] = system: WiDr colorectal adenocarcinoma cells; test: cells; details: Homo sapiens, 72 h
[3] = system: panel of human cancer cell lines; details: read-out: IC50 in all cell lines tested; all tumor lines examined; cited from earlier work
[4] = system: pTN24 dual-reporter splicing construct in 293T cells; test: Dual-reporter cell-based splicing assay; details: 5 hours treatment
[5] = NOD/SCID mice, 5-50 mg/kg daily for five days, IV and IP, day 5
[6] = system: normal human foreskin fibroblasts (HFF); test: cells; details: Fibroblast, 72 h
[7] = system: JeKo-1 mantle cell lymphoma tumors; details: JeKo-1 tumor-bearing mice, Supplemental Figure S2

## CC(=O)O[C@@H](C)/C=C\C(=O)N[C@@H]1C[C@H](C)[C@H](C/C=C(C)/C=C/[C@H]2O[C@](C)(O)C[C@@]3(CO3)[C@@H]2O)O[C@@H]1C [compound 1]
Several tumor cell lines; several tumor cell lines
  cytotoxicity IC50s: low nanomolar range
Several tumor cell lines; several tumor lines
  GI50s: single-digit nanomolar range

## CC[C@H](O)[C@@H](C)[C@H]1O[C@@H]1C[C@@](C)(O)/C=C/C=C(\C)[C@H]1OC(=O)C[C@H](O)CC[C@@](C)(O)[C@@H](OC(=O)N2CCN(C3CCCCCC3)CC2)/C=C/[C@@H]1C [compound 2]
[1]
  activity relative to pladienolide B: four-fold less active than pladienolide B

## CC(=O)O[C@@H](C)/C=C\C(=O)N[C@H]1CC[C@@H](C/C=C(C)/C=C/[C@@H]2C[C@]3(CO3)CC(C)(C)O2)CC1 [compound 3a]
[2]
  IC50: 2 µM
[3]
  IC50: < 5 µM

## CC(/C=C/[C@@H]1C[C@]2(CO2)CC(C)(C)O1)=C\C[C@H]1CC[C@@H](NC(=O)/C=C\[C@H](C)O)CC1 [compound 4]
[4]
  effect on splicing (ratio of luciferase to β-galactosidase activity): altered splicing only very slightly at the highest concentration tested

## CC(/C=C/[C@@H]1C[C@]2(CO2)CC(C)(C)O1)=C\C[C@H]1CC[C@@H](NC(=O)/C=C\[C@H](C)OC(=O)C(C)C)CC1 [compound 5, (S,Z)-5-((1R,4R)-4-((2E,4E)-5-((3R,5S)-7,7-dimethyl-1,6-dioxaspiro[2.5]octan-5-yl)-3-methylpenta-2,4-dienyl)cyclohexylamino)-5-oxopent-3-en-2-yl isobutyrate]
[5]
  blood cell counts (CBC) versus vehicle-only mice: No significant differences in blood cell counts
[6]
  IC50: > 10 µM

## CC(/C=C/[C@@H]1C[C@]2(CO2)CC(C)(C)O1)=C\C[C@H]1OC[C@@H](NC(=O)/C=C\[C@H](C)OC(=O)C(C)C)CO1 [compound 26, (S,Z)-5-((2R,5R)-2-((2E,4E)-5-((3R,5S)-7,7-dimethyl-1,6-dioxaspiro[2.5]octan-5-yl)-3-methylpenta-2,4-dienyl)-1,3-dioxan-5-ylamino)-5-oxopent-3-en-2-yl isobutyrate]
[4]
  effect on splicing (ratio of luciferase to β-galactosidase activity): selectively inhibit splicing
[7]
  in vivo anti-cancer activity: robust anti-cancer activity that was comparable to compound 5

## CC(=O)N[C@H]1CO[C@@H](C/C=C(C)/C=C/[C@@H]2C[C@]3(CO3)CC(C)(C)O2)OC1 [compound 27, N-((2s,5R)-2-((2E,4E)-5-((3R,5S)-7,7-dimethyl-1,6-dioxaspiro[2.5]octan-5-yl) -3-methylpenta-2,4-dienyl)-1,3-dioxan-5-yl)acetamide]
[4]
  effect on splicing (ratio of luciferase to β-galactosidase activity): had no effect
